Like-named read-outs stand apart in the source and are kept apart here.
Experiments:
[1] = tested on: GSD Ia puppies; experiment: Clinical course (hypoglycemia, survival) of GSD Ia puppies treated as neonates; type: in vivo, dog
Description: In this example, puppies with GSD Ia were initially treated with AAV-CRISPR/Cas9 and AAV-cG6PC (Donor) to perform neonatal genome editing at 2 days of age, followed by gene replacement therapy with one or more alternative serotypes of AAV to control symptoms of GSD Ia at the indicated ages for the individual puppies (Puppy 1 shown in green, Puppy 2 in purple in FIG. 4A, see Table 3 below for details). The control group of dogs were those described in Example 2 that received 3 doses of gene replacement therapy during infancy.
As shown in FIG. 4A and described in Table 3 below, two puppies with GSD Ia were treated with genome editing as neonates at a 5:1 ratio of AAV7-cG6PC and AAV7-SaCas9. One puppy was dosed at 4×10^13 vp/kg AAV7-cG6PC and 8×10^12 vp/kg AAV7-SaCas9. The other was dosed with 5×10^13 vp/kg AAV7-cG6PC and […] AAV7-SaCas9. […] Specifically, one puppy (the first described above) received two doses of gene replacement therapy (e.g., AAV10 G6Pase at 3×10^12 vp/kg and AAV8 G6Pase at 1×10^13 vp/kg) at ages 2 and 3 months, respectively. The second puppy received only one gene replacement therapy at 2 months of age (e.g., AAV9 G6Pase at 3×10^13 vp/kg). Table 3 below details the treatment protocols used for both puppies.

[2] = Method: Vector genomes in liver were quantified with qPCR. Briefly, AAV vector genome copy number was measured by quantitative real-time PCR with liver genomic DNA and normalized to β-actin. Plasmid DNA corresponding to 0.01 to 100 copies of canine G6Pase gene (in 500 ng genomic DNA) was used in a standard curve. qPCR was performed on a Lightcycler 480 (Roche Diagnostics, Basel, Switzerland) using SYBR Green mix (Thermo-Fisher Scientific, Waltham, MA) and the following primers: cG6Pc Fwd (5′-[…]-3′, SEQ ID NO: 65), cG6Pc Rev (5′-[…]-3′, SEQ ID NO: 66), hG6PC Fwd (5′-[…]-3′, SEQ ID NO: 67), hG6PC Rev (5′-[…]-3′, SEQ ID NO: 68), saCas9 Fwd (5′-[…]-3′, SEQ ID NO: 69), saCas9 Rev (5′-[…]-3′, SEQ ID NO: 70), cB-actin Fwd (5′-[…]-3′, SEQ ID NO: 71), cB-actin Rev (5′-[…]-3′, SEQ ID NO: 72). Cycling conditions were 95° C. for 5 min, followed by 45 cycles of 95° C. for 10 s, 60° C. for 10 s, and 72° C. for 20 s followed by acquisition.
[3] = tested on: canine G6PC locus; experiment: Nested integration PCR in transfected GSD Ia dog fibroblasts; type: cell-based
Method: Next, a nested PCR reaction was performed to detect levels of DNA integration in genomic DNA in the transfected fibroblasts. Fibroblast DNA were extracted using the Wizard Genomic DNA Purification Kit (Promega, Madison, WI, USA). The canine G6Pc locus was amplified by Q5 Taq Polymerase (NEB, Ipswich, MA, USA) with the following reagents: 5 μL of Q5 buffer, 5 μL of high GC enhancer solution, 2 μL of 2.5 mM dNTP mix, 1.25 μL of 10 uM primer P1 (5′-[…]-3′, SEQ ID NO: 59)), 1.25 μL of 10 uM primer P4 (5′-[…]-3′, SEQ ID NO: 62)), 9.25 μL of water, 1 μL (100 ng) of genomic DNA, and 0.25 μL of Q5 Taq Polymerase. Cycling conditions were 35 cycles of denaturation at 95° C. for 30 s, annealing at 59° C. for 30 s, extension at 72° C. for 2 min, followed by incubation at 4° C. One microliter of first-round PCR products was used in a nested reaction with the same conditions except primers were P2 (5′-[…]-3′ (SEQ ID NO: 60)) and P3 (5′-[…]-3′ (SEQ ID NO: 61)) and cycling was 30 cycles. Control primers were P5 (5′-[…]-3′ (SEQ ID NO: 63)) and P6 (5′-[…]-3′ (SEQ ID NO: 64)).
Sequencing of the integration PCR product (total sequence: SEQ ID NO: 52) confirmed the donor sequence was inserted in the dog G6PC gene at the exon 1/intron 1 boundary. […]

[4] = tested on: G6Pase activity in liver; experiment: Liver G6Pase activity in GSD Ia dogs; type: in vivo, dog; settings: 32 months of age, before CRISPR (BC), after gene replacement as neonates
Method: G6Pase activity and glycogen levels were analyzed at 4- and 16-months following genome editing at 34 months of age as described in (Koeberl, D. et al., (2006). Early, sustained efficacy of adeno-associated virus vector-mediated gene therapy in glycogen storage disease type Ia. Gene Therapy. 13, 1281-1289). Both assays reflected corrections of the biochemical abnormalities in comparison with untreated affected controls. Normal activity was measured in a group of three unaffected dogs (two carriers and one wildtype; both genotypes are accepted as normal controls in published studies of animals with GSD Ia). Briefly, liver biopsy tissues, obtained as described in Example 2, were flash-frozen and stored at −70° C. Glycogen content was measured by complete digestion of polysaccharide using amyloglucosidase (Sigma Chemical Co., St. Louis, MO). The structure of the polysaccharide was inferred by using phosphorylase free of the debranching enzyme to measure the yield of glucose-1-phosphate. Specific G6Pase activity was measured by using glucose-6-phosphate as substrate after subtraction of nonspecific phosphatase activity as estimated by β-glycerophosphate.

[5] = dogs treated as adults, months 4 and 16 after gene editing vectors
[6] = puppies treated as neonates, Months 4 and 16

| Substance | hypoglycemia and survival in the first two months of life ([1]; GSD Ia puppies treated at 2 days of age) | vector copy number in liver, compared with AAV-G6Pase ([2]; dogs treated as adults, 4 months following gene editing) | vector genomes in liver (qPCR) [2, 5] | vector genomes in liver (qPCR) [2, 6] | transgene integration (integration PCR) [3] | effect of gene replacement vector on recurrent hypoglycemia ([1]; puppies, given at 2 (and 3) months) | vector copy number in liver ([2]; dogs treated as adults, 4 months following gene editing (4M)) | G6Pase activity in liver [4] |
| --- | --- | --- | --- | --- | --- | --- | --- | --- |
| AAV-cG6PC: AAV donor vector: canine G6Pc cDNA flanked by canine G6PC 5' and 3' homology arms (SEQ ID NO: 43) | efficacious in preventing hypoglycemia and improving survival | Higher copy numbers | detected | detected | no detectable integration events | – | – | – |
| AAV-G6Pase: gene replacement AAV vector delivering human G6Pase cDNA under a human G6Pase minimal promoter, episomal expression (SEQ ID NO: 49; Luo et al. 2011) [reference compound] | – | – | detected | detected | – | reversed their symptoms | < 0.1 vg/nucleus | 29±8 % of normal |

Source: patent US20250376698A1, “COMPOSITIONS AND METHODS FOR PROMOTING LIVER REGENERATION BY GENE EDITING IN METABOLIC LIVER DISEASE” (priority 2022, published 2025)
